# According to US20180092947A1, “L-MYC Expression Maintains Self Renewal and Prolongs Multipotency of Primary Human Neural Stem Cells” (priority 2016, published 2018):
# Tested on: U251 human glioma cells
# Assay: In vitro cytotoxicity assay, CPT-11 alone or with hCElm6 (CellTiter-Glo)
# Assay type: cell-based
# Details: irinotecan 0-100 μM for 4 hours, then 96 hours drug-free, conditioned medium from CE-expressing LM-NSC008 cells
# Source text: To explore the therapeutic potential of LM-NSC008 cells, we characterized their migration to tumor-conditioned media in vitro. […] We performed in vitro cytotoxicity assays using human U251 glioma cells and various concentrations of irinotecan alone or in combination with CE derived from LM-NSC008 cells adenovirally transduced to express hCElm6. We observed enhanced irinotecan toxicity (500-fold) in the presence of hCElm6 in the culture media, when compared with CPT-11 alone. CE (hCElm6) activity was measured at 995 nmol/min/ml in the conditioned media derived from LM-NSC008 cells prior to cytotoxicity experiment (FIG. 2D).
# Human U251 glioma cell line was used in in vitro cytotoxicity assays as described previously (Metz et al., 2013). Briefly, cells were placed into 96-well plates (5,000 cells per well, in triplicate) in […] of culture media per well and cultured for 24 hours. Irinotecan (CPT-11), diluted in control culture medium or conditioned medium from CE-expressing LM-NSC008 cells, was then added to final concentrations of 0-100 μM. Cells were incubated with irinotecan for 4 hours, after which medium was aspirated and replaced with drug-free fresh medium, and cells were grown for an additional 96 hours. […]
smiles,measurement,value
CCc1c2c(nc3ccc(OC(=O)N4CCC(N5CCCCC5)CC4)cc13)-c1cc3c(c(=O)n1C2)COC(=O)[C@]3(O)CC [irinotecan],enhanced irinotecan toxicity in the presence of hCElm6 compared with CPT-11 alone,500 fold
